Results as given in ChEMBL document CHEMBL3217509, “Discovery of an HIV integrase inhibitor with an excellent resistance profile” (Medchemcomm, 2013).

Columns and labels:
[1] = Intrinsic clearance in human liver microsomes assessed per mg of protein by LC-MS/MS analysis; format: ADME; conditions: read-out: CLH
[2] = system: Human immunodeficiency virus 1; experiment: Antiviral activity against HIV1 NL4-3 infected in human MT2 cells after 3 days by human JC53BL cell-based beta-galactosidase reporter gene assay; format: functional, organism-based; conditions: Human immunodeficiency virus 1, NL4-3, JC53BL, 72 h
[3] = Intrinsic clearance in human hepatocytes assessed assessed per million of cells by LC-MS/MS analysis; format: ADME, cell-based, Hepatocyte; conditions: read-out: CLH
[4] = Intrinsic clearance in human liver microsomes assessed per mg of protein by LC-MS/MS analysis in presence of UDPGA; format: ADME; conditions: read-out: CLH
[5] = Inhibition of DNA polymerase gamma (unknown origin); design: species or system Homo sapiens
[6] = Inhibition of DNA polymerase alpha (unknown origin); design: species or system Homo sapiens
[7] = Inhibition of DNA polymerase beta (unknown origin); design: species or system Homo sapiens

microsomal CLint [1] [µL/min/mg]	IC50 [2] [nM]	hepatocyte CLint [3] [µL/min/1e6 cells]	microsomal CLint [4] [µL/min/mg]	IC50 [5] [nM]	IC50 [6] [nM]	IC50 [7] [nM]	Structure (SMILES)
15.4	5	17	5.8				O=C1c2ncc3c(ccn3Cc3ccc(F)cc3OC(F)F)c2CCN1O
17	3.9	37.7	19.7				COc1cc(F)ccc1Cn1ccc2c3c(ncc21)C(=O)N(O)C(C)(C)C3
19.2		29.6	24				O=C1c2ncc3c(ccn3Cc3ccc(F)cc3)c2CCN1O
				≤ 50000	> 50000	> 50000	O=C1Nc2ccc(Cl)cc2[C@@](C#CC2CC2)(C(F)(F)F)O1 [EFAVIRENZ]
